Experimental data taken from patent US7459477B2, “Substituted N-phenyl-phenoxy nicotinic acid-(thio)amides and their use as herbicides” (Nihon Nohyaku, Co., Ltd., priority 2001, dated 2008).

Columns and labels:
Assay type in all cases: in vivo
[1] = test system: Green Peach Aphid (Myzus Persicae); experiment: Insecticidal effect on green peach aphid (Test Example 4); details: 500 ppm; stems and leaves of Chinese cabbage sprayed; six days after the spraying; greenhouse
From the text: Insecticidal Effect on Green Peach Aphid (Myzus Persicae)
A Chinese cabbage plant was planted in each of plastic pots with a diameter of 8 cm and a height of 8 cm, and green peach aphids were propagated on the plant. Then, the stems and leaves were sufficiently sprayed with a liquid chemical prepared by diluting a preparation containing each compound listed in Tables 1 to 4 as an active ingredient to adjust the concentration to 500 ppm. After air-drying, the pots were allowed to stand in a greenhouse. Six days after the spraying, green peach aphids parasitic on each Chinese cabbage plant were counted and the control efficacy was calculated, whereby the […] effect was judged according to the criterion shown below. Control efficacy (%)=100−[(T×Ca)/(Ta×C)]×100 • Ta: number of parasites before spraying in treated group, • T: number of parasites after spraying in treated group,
Ca: number of parasites before spraying in untreated group, • […]: number of parasites after spraying in untreated group. Criterion for Judgment: • A: control efficacy 100% • B: control efficacy 99 to 90% • C: control efficacy 89 to 80% • D: control efficacy 79 to 50%

[2] = test system: Diamond Back Moth (Plutella xylostella); experiment: Insecticidal effect on diamond back moth (Test Example 1); details: 500 ppm; Chinese cabbage seedling with eggs immersed about 30 seconds; six days after the immersion; 25° C.
From the text: Insecticidal Effect on Diamond Back Moth (Plutella xylostella)
Adult diamond back moths were released and allowed to oviposit on a Chinese cabbage seedling. Two days after the release, the seedling having the eggs deposited thereon was immersed for about 30 seconds in a liquid chemical prepared by diluting a preparation containing each compound listed in Tables 1 to 4 as an active ingredient to adjust the concentration to 500 ppm. After air-dryness, it was allowed to stand in a room thermostatted at 25° C. Six days after the immersion, the hatched insects were counted. The mortality was calculated according to the following equation and the insecticidal effect was judged according to the criterion shown below. The test was carried out with triplicate groups of 10 insects.

[3] = test system: Two-Spotted Spider Mite (Tetranychus Urticae); experiment: Acaricidal effect on two-spotted spider mite (Test Example 3); details: 500 ppm; kidney bean leaf disc with female adults sprayed; two days after the treatment; 25° C.
Protocol: Acaricidal Effect on Two-Spotted Spider Mite (Tetranychus Urticae)
A leaf disc with a diameter of 2 cm was made of a kidney bean leaf, placed on wet filter paper, inoculated with female adult two-spotted spider mites, and then uniformly sprayed, on a turntable, with 50 ml of a liquid chemical prepared by diluting a preparation containing each compound listed in Tables 1 to 4 as an active ingredient to adjust the concentration to 500 ppm. After the spraying, the leaf disc was allowed to stand in a room thermostated at 25° C. Two days after the treatment with the preparation, the dead insects were counted and the acaricidal effect was judged according to the criterion shown in Test Example 1. The test was carried out with two replications of 10 insects.

| Compound | control efficacy rating [1] | insecticidal effect (mortality rating) [2] | acaricidal effect (mortality rating) [3] |
| --- | --- | --- | --- |
| CCCc1cc(C(C(F)(F)F)C(F)(F)F)ccc1NC(=O)c1c(C)nn(C)c1Cl [1-4] | B or higher | B or higher | – |
| CCC(C)c1cc(C(C(F)(F)F)C(F)(F)F)ccc1NC(=O)c1c(C)nn(C)c1Cl (centres unmarked) [1-8] | B or higher | – | – |
| Cc1nn(C)c(Cl)c1C(=O)Nc1ccc(C(C(F)(F)F)C(F)(F)F)c2ccccc12 [1-17] | – | B or higher | – |
| Cc1nn(C)c(Cl)c1C(=O)Nc1ccc(C(C(F)(F)F)C(F)(F)F)cc1-c1ccccc1 [1-20] | – | B or higher | – |
| Cc1nn(C)c(Cl)c1C(=O)Nc1ccc(C(F)(C(F)(F)F)C(F)(F)F)cc1C(C)C(C)C (centres unmarked) [1-21] | – | B or higher | – |
| CCCC(C)c1cc(C(C(F)(F)F)C(F)(F)F)ccc1NC(=O)c1c(C)nn(C)c1Cl (centres unmarked) [1-22] | – | – | B or higher |
| CCCC(C)c1cc(C(C(F)(F)F)C(F)(F)F)ccc1NC(=O)c1c(C)nn(C)c1C (centres unmarked) [1-25] | B or higher | – | B or higher |
| CCCC(C)c1cc(C(OC)(C(F)(F)F)C(F)(F)F)ccc1NC(=O)c1c(C)nn(C)c1C (centres unmarked) [1-26] | – | B or higher | B or higher |
| CC(C)CC(C)c1cc(C(F)(C(F)(F)F)C(F)(F)F)ccc1NC(=O)c1cn(C)nc1C(F)(F)F (centres unmarked) [1-28] | – | B or higher | – |
| CC(C)CC(C)c1cc(C(C(F)(F)F)C(F)(F)F)ccc1NC(=O)c1cn(C(F)F)nc1C(F)(F)F (centres unmarked) [1-33] | – | B or higher | – |
| Cc1nn(C)cc1C(=O)Nc1ccc(C(C(F)(F)F)C(F)(F)F)cc1C(C)CC(C)C (centres unmarked) [1-34] | – | – | B or higher |
| CCc1nn(C)cc1C(=O)Nc1ccc(C(C(F)(F)F)C(F)(F)F)cc1C(C)CC(C)C (centres unmarked) [1-35] | B or higher | B or higher | – |
| CC(C)CC(C)c1cc(C(C(F)(F)F)C(F)(F)F)ccc1NC(=O)c1cn(C)nc1Br (centres unmarked) [1-39] | – | – | B or higher |
| CC(C)CC(C)c1cc(C(C(F)(F)F)C(F)(F)F)ccc1NC(=O)c1cn(C)nc1I (centres unmarked) [1-40] | – | – | B or higher |
| CSc1nn(C)cc1C(=O)Nc1ccc(C(C(F)(F)F)C(F)(F)F)cc1C(C)CC(C)C (centres unmarked) [1-41] | B or higher | B or higher | – |
| CC(C)CC(C)c1cc(C(C(F)(F)F)C(F)(F)F)ccc1NC(=O)c1cnn(C)c1S(C)(=O)=O (centres unmarked) [1-48] | – | B or higher | – |
| CCn1ncc(C(=O)Nc2ccc(C(C(F)(F)F)C(F)(F)F)cc2C(C)CC(C)C)c1Cl (centres unmarked) [1-51] | – | – | B or higher |
| CC(C)CC(C)c1cc(C(C(F)(F)F)C(F)(F)F)ccc1NC(=O)c1cnn(C)c1I (centres unmarked) [1-56] | – | B or higher | – |
| CCn1ncc(C(=O)Nc2ccc(C(C(F)(F)F)C(F)(F)F)cc2C(C)CC(C)C)c1I (centres unmarked) [1-57] | – | B or higher | – |
| Cc1nn(C)c(Cl)c1C(=O)Nc1ccc(C(F)(C(F)(F)F)C(F)(F)F)cc1C(C)CC(C)C (centres unmarked) [1-70] | – | B or higher | – |
| CCOC(c1ccc(NC(=O)c2c(C)nn(C)c2Cl)c(C(C)CC(C)C)c1)(C(F)(F)F)C(F)(F)F (centres unmarked) [1-73] | – | B or higher | – |
| CCn1nc(C)c(C(=O)Nc2ccc(C(C(F)(F)F)C(F)(F)F)cc2C(C)CC(C)C)c1Cl (centres unmarked) [1-78] | – | – | B or higher |
| Cc1nn(C)c(Br)c1C(=O)Nc1ccc(C(C(F)(F)F)C(F)(F)F)cc1C(C)CC(C)C (centres unmarked) [1-81] | B or higher | – | B or higher |

| Compound | control efficacy rating [1] | insecticidal effect (mortality rating) [2] | acaricidal effect (mortality rating) [3] |
| --- | --- | --- | --- |
| COC(c1ccc(NC(=O)c2c(C)nn(C)c2Br)c(C(C)CC(C)C)c1)(C(F)(F)F)C(F)(F)F (centres unmarked) [1-82] | – | B or higher | B or higher |
| Cc1nn(C)c(I)c1C(=O)Nc1ccc(C(C(F)(F)F)C(F)(F)F)cc1C(C)CC(C)C (centres unmarked) [1-87] | B or higher | – | – |
| COC(c1ccc(NC(=O)c2c(C(F)(F)F)nn(C)c2Cl)c(C(C)CC(C)C)c1)(C(F)(F)F)C(F)(F)F (centres unmarked) [1-104] | – | – | B or higher |
| Cc1nn(C)c(C)c1C(=O)Nc1ccc(C(C(F)(F)F)C(F)(F)F)cc1C(C)CC(C)C (centres unmarked) [1-107] | – | B or higher | – |
| CCCn1nc(C)c(C(=O)Nc2ccc(C(C(F)(F)F)C(F)(F)F)cc2C(C)CC(C)C)c1C (centres unmarked) [1-119] | – | – | B or higher |
| CCc1nn(C)c(Cl)c1C(=O)Nc1ccc(C(C(F)(F)F)C(F)(F)F)cc1C(C)CC(C)C (centres unmarked) [1-132] | – | B or higher | B or higher |
| CCCCC(C)c1cc(C(C(F)(F)F)C(F)(F)F)ccc1NC(=O)c1c(C)nn(C)c1Cl (centres unmarked) [1-143] | – | B or higher | B or higher |
| Cc1nn(C)c(Cl)c1C(=O)Nc1ccc(C(F)(C(F)(F)F)C(F)(F)F)cc1C(C)CCC(C)C (centres unmarked) [1-145] | – | B or higher | – |
| Cc1nn(C)c(C)c1C(=O)Nc1ccc(C(F)(C(F)(F)F)C(F)(F)F)c(C)c1C [1-163] | – | B or higher | – |
| Cc1nn(C)c(C)c1C(=O)Nc1ccc(C(C(F)(F)F)C(F)(F)F)c(C)c1C [1-164] | – | B or higher | – |
| CC(C)CC(C)c1cc(C(C(F)(F)F)C(F)(F)F)ccc1NC(=O)c1ncc(Cl)cc1Cl (centres unmarked) [3-2] | – | B or higher | – |
| CC(C)CC(C)c1cc(C(C(F)(F)F)C(F)(F)F)ccc1NC(=O)c1cnccc1C(F)(F)F (centres unmarked) [3-3] | – | B or higher | – |
| CC(C)CC(C)c1cc(C(C(F)(F)F)C(F)(F)F)ccc1NC(=O)c1cccnc1Cl (centres unmarked) [3-4] | – | B or higher | – |
| Cc1nnsc1C(=O)Nc1ccc(C(F)(C(F)(F)F)C(F)(F)F)cc1C(C)CC(C)C (centres unmarked) [3-10] | – | B or higher | – |
| CC(C)CC(C)c1cc(C(C(F)(F)F)C(F)(F)F)ccc1NC(=O)c1cscc1Br (centres unmarked) [3-21] | – | – | B or higher |
| CC(C)CC(C)c1cc(C(C(F)(F)F)C(F)(F)F)ccc1NC(=O)c1cccs1 (centres unmarked) [3-27] | B or higher | – | – |
| Cc1noc(C)c1C(=O)Nc1ccc(C(C(F)(F)F)C(F)(F)F)cc1C(C)CC(C)C (centres unmarked) [3-34] | B or higher | – | – |
| Cc1c(Cl)c(C(=O)Nc2ccc(C(C(F)(F)F)C(F)(F)F)cc2C(C)CC(C)C)nn1C (centres unmarked) [4-1] | B or higher | B or higher | – |
| Cc1nn(C)c(C(=O)Nc2ccc(C(C(F)(F)F)C(F)(F)F)cc2C(C)CC(C)C)c1Cl (centres unmarked) [4-4] | – | B or higher | – |
| Cc1nn(C)c(C(=O)Nc2ccc(C(C(F)(F)F)C(F)(F)F)cc2C(C)CC(C)C)c1Br (centres unmarked) [4-5] | – | B or higher | – |
| Cc1nn(C)c(Cl)c1C(=O)Nc1ccc(C(C(F)(F)F)C(F)(F)F)cc1C(C)(C)C [Compound No. 1-10] | – | B or higher | – |
| Cc1nn(C)c(Cl)c1C(=O)Nc1ccc(C(C(F)(F)F)C(F)(F)F)c2c1CCCC2 [Compound No. 1-14] | – | B or higher | – |
| COC(c1ccc(NC(=O)c2c(C)nn(C)c2C)c(C(C)CC(C)C)c1)(C(F)(F)F)C(F)(F)F (centres unmarked) [Compound No. 1-108, N-{2-(1,3-dimethylbutyl)-4-[1-methoxy-2,2,2-trifluoro-1-(trifluoromethyl)ethyl]-phenyl}-1,3,5-trimethylpyrazole-4-carboxamide] | – | B or higher | – |
